Results as given in patent publication US20220409620A1, “REDUCING IMMUNOGENICITY TO PEGLOTICASE” (Horizon Pharma Rheumatology LLC, priority 2016, published 2022).

Tested on: adult patients with uncontrolled gout
Experiment: Serum uric acid (sUA) levels and sUA responder rate, open-label study of pegloticase with MTX (MIRROR OL)
Assay type: in vivo, human
Description: The primary objective is to estimate the response rate during Month 6 (Weeks 20, 22, and 24), as measured by the sustained normalization of serum uric acid (SUA) to <6 mg/dL for at least 80% of the time during Month 6 in subjects receiving KXX with MTX.
The primary efficacy outcome endpoint is the sustained normalization of SUA to <6 mg/dL for at least 80% of the time during month 6 (weeks 20, 22, and 24) in subjects receiving KXX with MTX. […] Participants who achieve this endpoint were classified as “responders.” Serum uric acid (SUA) responders may also be defined as participants achieving and maintaining SUA <6 mg/dL for at least 80% of the time during Month 6 (Weeks 20, 22, and 24).
Blood samples may be collected prior to each pegloticase infusion for measurement of SUA levels using the Beckman Coulter AU System Uric Acid procedure. Participants were declared “non-responders” if there were SUA measures >6 mg/dL at 2 consecutive study visits beginning with the week 2 visit. […] This assumption and subsequent discontinuation of pegloticase was consistent with the protocol of large phase III randomized controlled trials and the product label. A formal stopping rule was 2 occasions of SUA levels of greater than 6 mg/dL.
Clinical Chemistry—Blood samples were collected prior to each pegloticase infusion for measurement of SUA levels (primary efficacy parameter) using the Beckman Coulter AU System Uric Acid procedure. In this procedure uric acid is converted to hydrogen peroxide. Hydrogen peroxide reacts with reagent to produce a chromophore which is read bichromatically at 660/800 nm. The amount of dye formed is proportional to the uric acid concentration in the sample.
Serum samples for measurement of SUA levels were collected at the Screening Visit, the Week −4 Visit (prior to the first dose of MTX), and the Week −2 Visit during the MTX Run-in Period; within 48 hours prior to each pegloticase infusion and after the end of each pegloticase infusion prior to discharge from the site during the Pegloticase+IMM Period; at the non-infusion Week 52/End of Study/Early Termination Visits and at the Post Treatment 3 and 6 Month Follow-up Visits. Additional serum samples for SUA levels were collected at optional non-infusion (Frequent Sampling) Visits at Weeks 1 and 7. […] Subjects with SUA level >6 mg/dL at 2 consecutive visits beginning at Week 2 visit discontinued treatment, completed the End of Pegloticase Infusion Visit procedures within 2 weeks and continued the subject visits according to the protocol (without treatment).
Efficacy analyses were performed using the modified intention-to-treat (mITT) population, defined as all enrolled subjects who received ≥1 dose of pegloticase. The proportion of Month 6 responders was summarized, along with a 95% confidence interval for the proportion. The proportion of Month 3 and overall (Months 3 and 6 combined) responders was analyzed similarly.
A subject was declared a non-responder if the subject had SUA level >6 mg/dL at 2 consecutive study visits beginning with the Week 2 Visit. In addition, a subject who withdraws from study treatment for any reason after the first dose of pegloticase in the KXX+MTX Period and prior to Month 6 (for the primary endpoint) or Month 3 (for the secondary endpoint) was considered a non-responder if SUA values were not collected at the planned time points.
Patients were administered oral MTX (15 mg/week) and folate (1 mg/day) 4 weeks prior to the first pegloticase infusion (Day 1) and throughout the pegloticase treatment period. Blood was drawn prior to each infusion to measure sUA level, monitor clinical parameters, and examine for ADA development. All patients followed typical IR prophylaxis protocols (fexofenadine one day before and the morning of each infusion and acetaminophen and IV corticosteroid the morning of each infusion).

[1] = Month 6 sUA Responders, Week 48-Post-Infusion, n=3
[2] = Month 6 sUA Responders, Week 48-Pre-Infusion, n=2
[3] = Month 6 sUA Responders, Week 50-Post-Infusion, n=3
[4] = Month 6 sUA Responders, Week 50-Pre-Infusion, n=2
[5] = Month 6 sUA Responders, Week 52/ET, n=2
[6] = Week 2 - Post-Infusion, mITT Population
[7] = Week 2 - Pre-Infusion, mITT Population
[8] = Week 4 - Post-Infusion, mITT Population
[9] = Week 4 - Pre-Infusion, mITT Population
[10] = Week 6 - Post-Infusion, mITT Population
[11] = Week 6 - Pre-Infusion, mITT Population

pegloticase
Serum Uric Acid, Change from Baseline, Mean (SD) [1]: −10.33 (4.922) mg/dL
Serum Uric Acid, Change from Baseline, Median [1]: -9.80 mg/dL
Serum Uric Acid, Observed, Mean (SD) [1]: 1.60 (2.252) mg/dL
Serum Uric Acid, Observed, Median [1]: 0.30 mg/dL
sUA <6 mg/dL, n (%) [1]: 3 (100%)
Serum Uric Acid, Change from Baseline, Mean (SD) [2]: −12.65 (4.031) mg/dL
Serum Uric Acid, Change from Baseline, Median [2]: -12.65 mg/dL
Serum Uric Acid, Observed, Mean (SD) [2]: 0.30 (0.000) mg/dL
Serum Uric Acid, Observed, Median [2]: 0.30 mg/dL
sUA <6 mg/dL, n (%) [2]: 2 (100%)
Serum Uric Acid, Change from Baseline, Mean (SD) [3]: −10.57 (4.598) mg/dL
Serum Uric Acid, Change from Baseline, Median [3]: -9.80 mg/dL
Serum Uric Acid, Observed, Mean (SD) [3]: 1.37 (1.848) mg/dL
Serum Uric Acid, Observed, Median [3]: 0.30 mg/dL
sUA <6 mg/dL, n (%) [3]: 3 (100%)
Serum Uric Acid, Change from Baseline, Mean (SD) [4]: −12.65 (4.031) mg/dL
Serum Uric Acid, Change from Baseline, Median [4]: -12.65 mg/dL
Serum Uric Acid, Observed, Mean (SD) [4]: 0.30 (0.000) mg/dL
Serum Uric Acid, Observed, Median [4]: 0.30 mg/dL
sUA <6 mg/dL, n (%) [4]: 2 (100%)
Serum Uric Acid, Change from Baseline, Mean (SD) [5]: −12.65 (4.031) mg/dL
Serum Uric Acid, Change from Baseline, Median [5]: -12.65 mg/dL
Serum Uric Acid, Observed, Mean (SD) [5]: 0.30 (0.000) mg/dL
Serum Uric Acid, Observed, Median [5]: 0.30 mg/dL
sUA <6 mg/dL, n (%) [5]: 2 (100%)
Serum Uric Acid, Change from Baseline, Mean (SD) (Week 1, mITT Population): −7.28 (1.556) mg/dL
Serum Uric Acid, Change from Baseline, Median (Week 1, mITT Population): -7.75 mg/dL
Serum Uric Acid, Observed, Mean (SD) (Week 1, mITT Population): 0.30 (0.000) mg/dL
Serum Uric Acid, Observed, Median (Week 1, mITT Population): 0.30 mg/dL
sUA <6 mg/dL, n (%) (Week 1, mITT Population): 6 (100%)
Serum Uric Acid, Change from Baseline, Mean (SD) [6]: −8.86 (2.486) mg/dL
Serum Uric Acid, Change from Baseline, Median [6]: -8.70 mg/dL
Serum Uric Acid, Observed, Mean (SD) [6]: 0.30 (0.000) mg/dL
Serum Uric Acid, Observed, Median [6]: 0.30 mg/dL
sUA <6 mg/dL, n (%) [6]: 14 (100%)
Serum Uric Acid, Change from Baseline, Mean (SD) [7]: −7.90 (2.878) mg/dL
Serum Uric Acid, Change from Baseline, Median [7]: -8.70 mg/dL
Serum Uric Acid, Observed, Mean (SD) [7]: 1.26 (2.163) mg/dL
Serum Uric Acid, Observed, Median [7]: 0.30 mg/dL
sUA <6 mg/dL, n (%) [7]: 13 (92.9%)
Serum Uric Acid, Change from Baseline, Mean (SD) [8]: −8.92 (2.577) mg/dL
Serum Uric Acid, Change from Baseline, Median [8]: -8.80 mg/dL
Serum Uric Acid, Observed, Mean (SD) [8]: 0.30 (0.000) mg/dL
Serum Uric Acid, Observed, Median [8]: 0.30 mg/dL
sUA <6 mg/dL, n (%) [8]: 13 (100%)
Serum Uric Acid, Change from Baseline, Mean (SD) [9]: −7.54 (3.768) mg/dL
Serum Uric Acid, Change from Baseline, Median [9]: -8.00 mg/dL
Serum Uric Acid, Observed, Mean (SD) [9]: 1.61 (2.637) mg/dL
Serum Uric Acid, Observed, Median [9]: 0.30 mg/dL
sUA <6 mg/dL, n (%) [9]: 12 (85.7%)
Serum Uric Acid, Change from Baseline, Mean (SD) [10]: −8.98 (2.679) mg/dL
Serum Uric Acid, Change from Baseline, Median [10]: -8.95 mg/dL
Serum Uric Acid, Observed, Mean (SD) [10]: 0.30 (0.000) mg/dL
Serum Uric Acid, Observed, Median [10]: 0.30 mg/dL
sUA <6 mg/dL, n (%) [10]: 12 (100%)
Serum Uric Acid, Change from Baseline, Mean (SD) [11]: −8.31 (3.538) mg/dL
Serum Uric Acid, Change from Baseline, Median [11]: -8.80 mg/dL
Serum Uric Acid, Observed, Mean (SD) [11]: 0.91 (2.191) mg/dL
Serum Uric Acid, Observed, Median [11]: 0.30 mg/dL
sUA <6 mg/dL, n (%) [11]: 12 (92.3%)
Serum Uric Acid, Change from Baseline, Mean (SD) (Week 7, mITT Population): −8.90 (4.755) mg/dL
Serum Uric Acid, Change from Baseline, Median (Week 7, mITT Population): -7.85 mg/dL
